How the values were obtained:
Assay type in all cases: in vivo
[1] = system: Sweetpotato Whitefly (Bemisia tabacia); experiment: Insecticidal test for sweetpotato whitefly (spray on cotton plants); conditions: Bemisia, 312 h, 200 ppm spray, large nymphs counted after 13 days, rating of % Control, read-out: WF, activity at 200 ppm against whitefly
Experimental: Insecticidal test for Sweetpotato Whitefly (Bemisia tabacia)
Four mg of each test compound were dissolved by adding 4 mL of a 90:10 acetone:ethanol solvent mixture to the vial containing the sample compound. This solution was added to 16 mL of water containing 0.05% Tween 20 surfactant to produce 20 mL of a 200 ppm spray solution.
Five-week-old cotton plants reared in a greenhouse were stripped of all foliage except for the two uppermost true leaves that were greater than 5 cm in diameter. These plants were then placed into a laboratory colony of whiteflies for two days for oviposition by the colony females. All whiteflies were then removed from the test plants with pressurized air. The spray solution was then applied to the test plants with a hand-held syringe fitted with hollow cone nozzle. One mL spray solution was applied to each leaf top and bottom for a total of 4 mL per plant. Four replications of each test compound utilized a total of 16 mL spray solution. Plants were air dried and then placed in a holding chamber (28 °C and 60% RH) for 13 days. Compound efficacy was evaluated by counting, under an illuminated magnifying glass, the number of large nymphs (3rd-4th instar) per leaf
Percent control based on reduction of large nymphs of a test compound compared to solution-only (no test compound) sprayed plants is reported in Table 1-8.

[2] = system: cabbage looper (Trichoplusia ni); experiment: Insecticidal test for cabbage looper (leaf-dip, cabbage leaf discs); conditions: Trichoplusia ni, foliar, 120 h, dipped cabbage leaf discs, 2nd instar larvae, 5 days, rating of % Control, read-out: CL, activity at 400 ppm against cabbage looper
Experimental: (§1) Insecticidal test for tobacco budworm (Heliothis virescens), beet armyworm (Spodoptera exigua), and cabbage looper (Trichoplusia ni).
(§2) To prepare test solution, the test compound was formulated at 400 ppm in 7.5 mL of 2 acetone: 1 tap water. 250 µL of the test solution was pipetted upon the surface of 8 mL of lepidopteran diet (modified Shorey) contained in each of five one-ounce plastic cups (one cup = 1 replication). […] After airdrying, the treated leaf discs were placed individually into one-ounce plastic cups. Each dried, treated cotton cotyledon disc was infested with a 2nd instar tobacco budworm larva, and each cabbage leaf disc was infested with a 2nd instar cabbage looper larva. Cups containing the treated substrates and larvae were capped and then held in a growth chamber at 25 °C, 50-55% RH, and 14 hr light: 10 hr dark for 5 days.

[3] = system: beet armyworm (Spodoptera exigua); experiment: Insecticidal test for beet armyworm (treated lepidopteran diet); conditions: Spodoptera exigua, 120 h, 2nd instar larvae, 5 days, rating of % Control, read-out: BAW, activity at 400 ppm against beet armyworm
Experimental: as §1, §2

[4] = system: tobacco budworm (Heliothis virescens); experiment: Insecticidal test for tobacco budworm (leaf-dip, cotton cotyledon discs); conditions: Heliothis virescens, 120 h, dipped cotton cotyledon discs, 2nd instar larvae, 5 days, rating of % Control, read-out: TBW, activity at 400 ppm against tobacco budworm
Experimental: as §1, §2

[5] = system: two-spotted spider mite (Tetranychus urticae); experiment: Insecticidal test for two-spotted spider mite, ovicide method; conditions: Tetranychus urticae, foliar, 144 h; ovicide method, cotton leaf discs, 6 days; rating of % Control; read-out: SM, activity against two-spotted spider mite
Experimental: Insecticidal test for two-spotted spider mite (Tetranychus urticae)
Ten adult female two-spotted spider mites were placed on eight 2.2 cm leaf discs of cotton leaf, allowed to oviposit over 24 hours, and thereafter removed. […] Discs were placed on an agar substrate and held at 24 °C and 90% RH for 6 days.

[6] = system: cotton aphid (Aphis gossypii); experiment: Insecticidal test for cotton aphid (spray on infested squash cotyledons); conditions: 50 ppm spray, all life stages, 3 days, rating of % Control
Experimental: Insecticidal test for cotton aphid (Aphis gossypii)
To prepare spray solutions, 1 mg of each test compound was dissolved into 1 mL of a 90:10 acetone:ethanol solvent. This 1 mL of chemical solution was added to 19 mL of water containing 0.05% Tween 20 surfactant to produce a 50 ppm spray solution.
Squash cotyledons were infested with cotton aphid (all life stages)16-20 hours prior to application of spray solution. The solution was sprayed on both sides of each infested squash cotyledon (0.5 mL x 2 each side) with a sweeping action until runoff. The plants were allowed to air dry and held for 3 days in a controlled room at 26 °C and 40% RH after which time the test was graded. Grading was by actual count using a dissecting microscope and comparison of test counts to the untreated check.

| SMILES | pest or weed control at 200 ppm [1] | pest or weed control at 400 ppm [2] | pest or weed control at 400 ppm [3] | pest or weed control at 400 ppm [4] | pest or weed control [5] | CA, activity at 50 ppm against cotton aphid [6] |
| --- | --- | --- | --- | --- | --- | --- |
| Cc1cc(-c2ccc(C(F)(F)F)cc2)ccc1[C@H]1N=C(c2c(F)cccc2F)O[C@H]1C (mixture of isomers) [Compound 39, (4R,5S)- and (4S,5R)-2-(2,6-difluorophenyl)-5-methyl-4-[3-methyl-4'-(trifluoromethyl)-1,1'-biphenyl-4-yl]-4,5-dihydro-1,3-oxazole] | < 50% | 90 to 100% | 90 to 100% | 90 to 100% | 80 to 89% |  |
| C[C@H]1OC(c2c(F)cccc2F)=N[C@H]1c1ccc(-c2ccc(OC(F)(F)F)cc2)cc1 (mixture of isomers) [Compound 6, (4S,5R)- and (4R,5S)-2-(2,6-difluorophenyl)-4-(4'-trifluoromethoxy-1,1'-biphenyl-4-yl)-5-methyl-4,5-dihydro-1,3-oxazole] | 80 to 89% | 90 to 100% | 90 to 100% | 90 to 100% | 90 to 100% | A (90-100) |
| C[C@@H]1OC(c2c(F)cccc2F)=N[C@@H]1c1ccc(Br)cc1 (mixture of isomers) [Compound 2, (4R,5S)- and (4S,5R)-4-(4-bromophenyl)-2-(2,6-difluorophenyl)-5-methyl-4,5-dihydro-1,3-oxazole] | 90 to 100% | < 50% | < 50% |  | 90 to 100% | A (90-100) |
| Cc1cc(-c2ccc(OC(F)(F)F)cc2)ccc1[C@H]1N=C(c2c(F)cccc2F)O[C@H]1C (mixture of isomers) [Compound 40, (4R,5S)- and (4S,5R)-2-(2,6-difluorophenyl)-5-methyl-4[3-methyl-4'-(trifluoromethoxy)-1,1'-biphenyl-4-yl]-4,5-dihydro-1,3-oxazole] | < 50% | 90 to 100% | 90 to 100% | 90 to 100% | 80 to 89% |  |
| C[C@@H]1OC(c2c(F)cccc2Cl)=N[C@@H]1c1ccc(Br)cc1 (mixture of isomers) [Compound 3, (4R,5S)- and (4S,5R)-4-(4-bromophenyl)-2-(2-chloro-6-fluorophenyl)-5-methyl-4,5-dihydro-1,3-oxazole] | 90 to 100% | 90 to 100% |  |  | 90 to 100% | B (80-89) |
| C[C@@H]1OC(c2c(F)cccc2F)=N[C@H]1c1ccc(-c2ccc(C(F)(F)F)cc2F)cc1 (mixture of isomers) [Compound 32, (4S,5S)- and (4R,5R)-2-(2,6-difluorophenyl)-4-[2'-fluoro-4'-(trifluoromethyl)-1,1'-biphenyl-4-yl]-5-methyl-4,5-dihydro-1,3-oxazole] | < 50% | 90 to 100% | 90 to 100% | 90 to 100% | 70 to 79% |  |
| CC(C)c1ccc(-c2ccc([C@@H]3N=C(c4c(F)cccc4F)O[C@@H]3C)cc2)cc1 (mixture of isomers) [Compound 7, (4S,5R)- and (4R,5S)-2-(2,6-difluorophenyl)-4-(4'-isopropyl-1,1'-biphenyl-4-yl)-5-methyl-4,5-dihydro-1,3-oxazole] | 90 to 100% | 90 to 100% | 90 to 100% | 90 to 100% | 60 to 69% |  |

— patent publication EP1397353B1, “2-(2,6-DISUBSTITUTED PHENYL)-4-ARYL-5-ALKYL-1,3-OXAZOLINE COMPOUNDS USEFUL AS INSECTICIDES AND ACARICIDES” (Dow AgroSciences LLC, priority 2001, dated 2003)
